We go through two compounds from US20250034196A1, “ESTER DERIVATIVES OF N4-HYDROXYCYTIDINE AND USE THEREOF” (priority 2021, published 2025).

Molecules are shown by their SMILES.

Series [1] has as its system SARS-CoV-2 Omicron B.1.1.529 variant. The conditions noted are these: Vero E6.
Series [2] shares this test system. As to the kind of experiment: microbe, parasite or virus in culture. The conditions noted are these: Severe acute respiratory syndrome coronavirus 2, Vero C1008, 96 h.

As to `CC(=O)ONc1ccn([C@@H]2O[C@H](CO)[C@@H](O)[C@H]2O)c(=O)n1` [EX-2], the “SI (CC50/EC50)” value in series [1] was 11.38. Besides, in series [2], the midpoint of the response, the EC50, lay at 1.6 µM and the EC90 – broadly, the concentration needed for an effect of 90% – was determined as 2.48 µM.

As to `CC(C)C(=O)OC[C@H]1O[C@@H](n2ccc(NO)nc2=O)[C@H](O)[C@@H]1O` [Molnupiravir], in series [1], the “SI (CC50/EC50)” value is on record as more than 6.65. In addition, in series [2], the EC50 – broadly, the concentration at which the effect is half-maximal – came to 15.1 µM and the 90% effect level (EC90) was put at 23.4 µM.
